The numbers were not newly measured in paper PMC8198792, “Prediction of Anticancer Peptides with High Efficacy and Low Toxicity by Hybrid Model Based on 3D Structure of Peptides” (International Journal of Molecular Sciences, 2021), which cites them from elsewhere.

Where two headings read alike, the source gives them in different places.

The series has as its system cancer cell lines. Details: method as in 6 sources, ref CancerPPD [45] and SATPdb ||| ref CancerPPD/SATPdb ||| ref CancerPPD, SATPdb, Swissprot (PDB) ||| ref CancerPPD/SATPdb/Swissprot(PDB) ||| ref CancerPPD / SATPdb ||| ... Conditions: cited from earlier work. From the text: Supplement ijms-22-05630-s001.zip/ACPs(seguence).xlsx, sheet "D1" | column: Activity || Supplement ijms-22-05630-s001.zip/ACPs(seguence).xlsx, sheet "D2" | column: Activity || Supplement ijms-22-05630-s001.zip/ACPs(seguence).xlsx, sheet "D3" | column: Activity || (+ 2 further places)

[1] abbreviates: ACPs dataset D3 (supplement sheet "D3"), 1 = ACP, 0 = non-ACP, ref CancerPPD [45] and SATPdb.
The mark [2] stands for this setting: ACPs dataset D4 (sheet "D4"), label 1 = ACP (CancerPPD ID), 0 = non-ACP (non-anticancer AMP, SATPdb ID), ref CancerPPD [45] and SATPdb.
Setting [3] is: ACPs dataset D5 (sheet "D5"), label 1 = ACP (positive set), 0 = non-ACP (negative set), ref CancerPPD [45] and SATPdb.
The mark [4] stands for this setting: ACPs dataset D1, 1 = ACP (positive), 0 = non-ACP (negative), label taken from databases, ref CancerPPD [45] and SATPdb.
Where [5] appears, read: ACPs dataset D4 (sheet "D4"), label 1 = ACP, experimentally validated ACPs, ref CancerPPD [45] and SATPdb.
Where [6] appears, read: ACPs dataset D5 (sheet "D5"), label 1 = ACP (positive set), sequences with CancerPPD/SATPdb ID, ref CancerPPD, SATPdb.
[7] abbreviates: ACPs dataset sheet D2, 1 = ACP (CancerPPD/SATPdb ID), 0 = non-ACP (Swissprot/PDB ID), ref CancerPPD, SATPdb, Swissprot (PDB).
[8] abbreviates: ACPs dataset D5, sheet "D5", label 1 = ACP, 0 = non-ACP, ref CancerPPD [45] and SATPdb.
Setting [9] is: ACPs dataset D1, label 1 = ACP, 0 = non-ACP (non-anticancer AMPs from SATPdb), ref CancerPPD/SATPdb.
The mark [10] stands for this setting: ACPs dataset D3 (sheet "D3"), label 1 = ACP, 0 = non-ACP, ref CancerPPD/SATPdb.
Setting [11] is: ACPs dataset D4 (sheet "D4"), label 1 = ACP, 0 = non-ACP, ref CancerPPD / SATPdb.

In the case of GKWKSLLKHILK [compound 3653], the Activity under setting [1] was 1, the Activity under setting [2] is recorded as 1 and the Activity under setting [3] is given as 1.
Take KVKVKVKVpPTKVKVKVK [compound 3218]: the Activity is, setting by setting: under setting [1], 1; under setting [2], 1; under setting [3], 1.
Turning to GIIKKIIIKKIIIKKIIIKKI [compound 1434], the Activity was 1 under setting [4], 1 under setting [5], 1 under setting [6] and 1 under setting [7].
“MAELQERIRHFWKESRRAFLVTKKPNWATYKRAAKITGLGIILIGLIGMLIRIVGILILGG [3MP7 X-ray 2.90 B 1-61]”: the Activity (ACPs dataset D2 (supplement ACPs(seguence).xlsx, sheet D2), dataset label 1/0 (ACP / non-ACP), entries identified by Swissprot(PDB ID), ref CancerPPD/SATPdb/Swissprot(PDB)) is on record as 0 and the Activity under setting [8] was 0.
Regarding “GTLPCGESCVWIPCISAVVGCSCKSKVCYKN [satpdb10694]”, the Activity is 0 under setting [4] and 0 under setting [2].
As for “TNYGNGVGVPDAIMAGIIKLIFIFNIRQGYNFGKKAT [satpdb11292]”, the Activity is 0 under setting [4] and 0 under setting [2].
Regarding LVRGCWTKSYPPKPCFVR [satpdb11395], the Activity is, setting by setting: under setting [9], 0; under setting [2], 0.
As for LPRFSTMPFIYCNINEVCHY [satpdb13486], the Activity under setting [4] is on record as 1, the Activity under setting [5] is on record as 1, the Activity under setting [6] is listed as 1 and the Activity under setting [7] is 1.
As to GLFDVIKKVASVIKGL [compound 4075], the Activity runs as follows: under setting [1], 1; under setting [2], 1; under setting [3], 1.
Turning to “GWIRDFGKRIERVGQHTRDATIQTIAVAQQAANVAATLKG [satpdb12541]”, the Activity runs as follows: under setting [9], 0; under setting [2], 0.
For the substance “GVFGLLAKAALKGASKLIPHLLPSRQQ [satpdb12176]”, the Activity under setting [9] is 0 and the Activity under setting [2] was 0.
In the case of “KWKSFAKTFKSAKKTVAHTALKAISS [compound 1445]”, the Activity is given as 1 under setting [4], 1 under setting [5], 1 under setting [6] and 1 under setting [7].
For “KILRGVAKKIMRTFLRRISKDILTGKK [compound 3325]”, the Activity runs as follows: under setting [1], 1; under setting [2], 1; under setting [3], 1.
Regarding “HRHQGPIFDTRPSPFNPNQPRPGPIY [satpdb10283]”, the Activity runs as follows: under setting [4], 0; under setting [2], 0.
For “KRFKKFFKKLKNSVKKRVKKFFRKPRVIGVTFPF [satpdb10654]”, the Activity under setting [4] is listed as 0 and the Activity under setting [2] is listed as 0.
In the case of “KSSAYSLQMGATAIKQVKKLFKKWGW [compound 4448]”, the Activity is, setting by setting: under setting [4], 1; under setting [5], 1; under setting [6], 1; under setting [7], 1.
With GLFDVIKAVASVIGGL [compound 4057], the Activity reads like this: under setting [1], 1; under setting [2], 1; under setting [3], 1.
As for PAWRKAFRAAWRMLKKAA [compound 1610], the Activity under setting [4] was 1, the Activity under setting [5] is reported as 1, the Activity under setting [6] is given as 1 and the Activity under setting [7] is given as 1.
Turning to “VAKCTEESGGKYFVFCCYKPTRICYMNEQKCESTCIGK [satpdb10361]”, the Activity runs as follows: under setting [4], 0; under setting [2], 0.
Take “CSTNTFSLSDYWGNKGNWCTATHECMSWCK [satpdb10487]”: the Activity is given as 0 under setting [4] and 0 under setting [2].
On to ECRRLCYKQRCVTYCRGR [compound 4435], for which the Activity was 1 under setting [4], 1 under setting [5], 1 under setting [6] and 1 under setting [7].
As for “GIPCGESCVWIPCISAAIGCSCKNKVCYRN [satpdb12462]”, the Activity under setting [9] was 0 and the Activity under setting [2] is 0.
With FLPAVLRVAAQVVPTVFCAISKKC [satpdb11368], the Activity under setting [4] is listed as 0 and the Activity under setting [2] is 0.
In the case of RGGRLTYTRpRFTVTVGR [satpdb14856], the Activity runs as follows: under setting [10], 0; under setting [11], 0; under setting [8], 0.
For GFHDHGPCDPPSHK [satpdb16441], the Activity runs as follows: under setting [4], 1; under setting [5], 1; under setting [6], 1; under setting [7], 1.
With KNWKKILGKIIKVVK [compound 3509], the Activity under setting [1] is 1, the Activity under setting [2] is recorded as 1 and the Activity under setting [3] is on record as 1.
For the substance INGSLDKRLLPDVET [satpdb28594], the Activity is 1 under setting [4], 1 under setting [5], 1 under setting [6] and 1 under setting [7].
In the case of KAFDITYVRLKF [satpdb20842], the Activity under setting [4] is 1, the Activity under setting [5] is on record as 1, the Activity under setting [6] is 1 and the Activity under setting [7] is listed as 1.
Turning to “MKFYTIKLPK FLGGIVRAML GSFRKD [2MVH NMR - A 1-26]”, the Activity is 0 under setting [3] and 0 under setting [7].
As for GLLGPLLKIAAKVGSNLL [compound 4417], the Activity runs as follows: under setting [4], 1; under setting [5], 1; under setting [6], 1; under setting [7], 1.
For the substance “QLKKCWNNYVQGHCRKICRVNEVPEALCENGRYCCLNIKELEAC [satpdb10388]”, the Activity is reported as 0 under setting [4] and 0 under setting [2].
Regarding “KLCERSSGTWSGVCGNNNACKNQCINLEGARHGSCNYVFPYHRCICYFPC [satpdb11142]”, the Activity by setting is: under setting [4], 0; under setting [2], 0.
In the case of DFKLFAVYIKYR [satpdb16901], the Activity reads like this: under setting [4], 1; under setting [5], 1; under setting [6], 1; under setting [7], 1.
With “KWKEFLKEFKEAKKEVLHEALKAISE [satpdb14503]”, the Activity by setting is: under setting [10], 0; under setting [11], 0; under setting [8], 0.
KLALKLALKAlkAALKLA [satpdb10294]: the Activity is listed as 0 under setting [4] and 0 under setting [2].
With TTITGKKCQSWAAMFPHRHSKT [satpdb18336], the Activity was 1 under setting [4], 1 under setting [5], 1 under setting [6] and 1 under setting [7].
As for “KLCGETCFKFKCYTPGCSCSYPFCK [compound 4395]”, the Activity is on record as 1 under setting [4], 1 under setting [5], 1 under setting [6] and 1 under setting [7].
As for “GLLPCAESCVYIPCLTTVIGCSCKSKVCYKN [compound 4423]”, the Activity was 1 under setting [4], 1 under setting [5], 1 under setting [6] and 1 under setting [7].
As to SNASVWECCSTGSWVPFTCC [satpdb10213], the Activity under setting [4] is recorded as 0 and the Activity under setting [2] is given as 0.
As to VAKKLAKLAKKLAKLAL [compound 1919], the Activity reads like this: under setting [1], 1; under setting [2], 1; under setting [3], 1.
Regarding FAKKLAKLAKKLAKLAL [compound 1787], the Activity runs as follows: under setting [1], 1; under setting [5], 1; under setting [6], 1.
Regarding PLLQATLGGGS [compound 3726], the Activity by setting is: under setting [4], 1; under setting [5], 1; under setting [6], 1; under setting [7], 1.
KTCENLADTFRGPCFATSNC [compound 4449]: the Activity reads like this: under setting [4], 1; under setting [5], 1; under setting [6], 1; under setting [7], 1.
INEFLERSGIPRQRNQ [satpdb14958]: the Activity under setting [4] is 1, the Activity under setting [5] is 1, the Activity under setting [6] is on record as 1 and the Activity under setting [7] was 1.
As for VRRFPWWWAFLRR [satpdb11783], the Activity was 0 under setting [1], 0 under setting [11] and 0 under setting [8].
For the substance HFLLTLKNLAKKIL [satpdb10120], the Activity under setting [1] is listed as 0, the Activity under setting [11] is 0 and the Activity under setting [8] is on record as 0.
Turning to “GFGCPFNQYECHAHCSGVPGYKGGYCKGLFKQTCNCY [satpdb12844]”, the Activity was 0 under setting [9] and 0 under setting [11].
